The values below come from ChEMBL document CHEMBL1130994, “3-trifluoromethylcarbacephems: synthesis of broad spectrum antibacterial compounds” (1998).

Molecules are shown by their SMILES. In brackets after ≈: the same amount, converted by molar mass.

Common to all, as to type: functional
The subject of assay [1] is Streptococcus pyogenes. Put plainly: Compound was evaluated for inhibitory activity against C203 Streptococcus pyogenes Gp.A.
Assay [2] deals with Escherichia coli. Nature of the assay: Compound was evaluated for inhibitory activity against TEM Escherichia coli beta-lactamase.
Assay [3] deals with Haemophilus influenzae. Nature of the assay: Compound was evaluated for inhibitory activity against 76 Haemophilus influenzae beta-lactamase.
Assay [4] deals with Haemophilus influenzae. Put plainly: Compound was evaluated for inhibitory activity against C.L Haemophilus influenzae ampicillin sensitive.
In assay [5] the test system is Serratia. Nature of the assay: Compound was evaluated for inhibitory activity against SE3 Serratia.
The subject of assay [6] is Staphylococcus aureus. Nature of the assay: Compound was evaluated for inhibitory activity against S13E Staphylococcus aureus methicillin resistant penicillin resistant macrolide sensitive (PBP2a producer).
Assay [7] has as its system Staphylococcus aureus. Nature of the assay: Compound was evaluated for inhibitory activity against X1.1 Staphylococcus aureus penicillin sensitive.
Assay [8] relates to Morganella morganii. Put plainly: Compound was evaluated for inhibitory activity against PR15 Morganella morganii.
Assay [9] relates to Klebsiella pneumoniae. Nature of the assay: Compound was evaluated for inhibitory activity against KAE Klebsiella pneumoniae.
In assay [10] the test system is Enterococcus faecalis. Put plainly: Compound was evaluated penicillin susceptible.
For assay [11], the system named is Klebsiella pneumoniae. Nature of the assay: Compound was evaluated for inhibitory activity against X26 Klebsiella pneumoniae.
In assay [12] the test system is Citrobacter. Nature of the assay: Compound was evaluated for inhibitory activity against CF17 Citrobacter.
In assay [13] the test system is Providencia stuartii. Put plainly: Compound was evaluated for inhibitory activity against PR33 Providencia stuartii.
The subject of assay [14] is Salmonella. Put plainly: Compound was evaluated for inhibitory activity against X514 Salmonella.
Assay [15] deals with Staphylococcus aureus. Put plainly: Compound was evaluated for inhibitory activity against X400S Staphylococcus aureus methicillin resistant and macrolide resistant.
For assay [16], the system named is Enterobacter cloacae. Nature of the assay: Compound was evaluated for inhibitory activity against EB5 Enterobacter cloacae.
The test system of assay [17] is Acinetobacter. Nature of the assay: Compound was evaluated for inhibitory activity against AC12 Acinetobacter.
The subject of assay [18] is Klebsiella aerogenes. Nature of the assay: Compound was evaluated for inhibitory activity against EB17 Enterobacter aerogenes.
For assay [19], the system named is Streptococcus pneumoniae. Put plainly: Compound was evaluated for inhibitory activity against Park S Streptococcus pneumoniae.
Assay [20] has as its system Providencia rettgeri. Nature of the assay: Compound was evaluated for inhibitory activity against C24 Providencia rettgeri.
Assay [21] concerns Enterobacter cloacae. Nature of the assay: Compound was evaluated for inhibitory activity against 265a Enterobacter cloacae beta-lactamase.
Assay [22] concerns Serratia. Nature of the assay: Compound was evaluated for inhibitory activity against X99 Serratia.
The test system of assay [23] is Klebsiella aerogenes. Nature of the assay: Compound was evaluated for inhibitory activity against C32 Enterobacter aerogenes.
Assay [24] relates to Escherichia coli. Nature of the assay: Compound was evaluated for inhibitory activity against EC14 Escherichia coli sensitive.
For assay [25], the system named is Salmonella. Put plainly: Compound was evaluated for minimum inhibitory concentration against X514 Salmonella.
Assay [26] relates to Enterococcus faecalis. Put plainly: Compound was evaluated for inhibitory activity against 2041 Enterococcus faecalis Gp.D streptococcus penicillin susceptible.

On to `CCS(=O)(=O)Nc1cccc([C@@H](N)C(=O)N[C@@H]2C(=O)N3C(C(=O)O)=C(C(F)(F)F)CC[C@H]23)c1`, for which the MIC in assay [1] is 0.06 µM (≈ 0.0294 µg/mL); in assay [2], 1 µM (≈ 0.49 µg/mL); in [3] it was 4 µM (≈ 1.96 µg/mL); in assay [4], 1 µM (≈ 0.49 µg/mL); in assay [5], 128 µM (≈ 62.8 µg/mL); in assay [6], 32 µM (≈ 15.7 µg/mL). Moreover, the MIC came to 4 µM (≈ 1.96 µg/mL) in assay [7]; 16 µM (≈ 7.85 µg/mL) in assay [8]; 32 µM (≈ 15.7 µg/mL) in [9]; 32 µM (≈ 15.7 µg/mL) in assay [10]; 0.25 µM (≈ 0.123 µg/mL) in [11]; 32 µM (≈ 15.7 µg/mL) in [12]. Moreover, the MIC amounted to 16 µM (≈ 7.85 µg/mL) in [13]; 1 µM (≈ 0.49 µg/mL) in [14]; 32 µM (≈ 15.7 µg/mL) in assay [15]; 32 µM (≈ 15.7 µg/mL) in assay [16]; 64 µM (≈ 31.4 µg/mL) in assay [17]; 16 µM (≈ 7.85 µg/mL) in [18]. In addition, the MIC in [19] worked out at 0.13 µM (≈ 0.0638 µg/mL); in [20] it was 32 µM (≈ 15.7 µg/mL); in assay [21], 32 µM (≈ 15.7 µg/mL); in assay [22] it was 64 µM (≈ 31.4 µg/mL); in assay [23], 16 µM (≈ 7.85 µg/mL); in [24], 1 µM (≈ 0.49 µg/mL).

Consider `N[C@@H](C(=O)N[C@@H]1C(=O)N2C(C(=O)O)=C(C(F)(F)F)CC[C@H]12)c1ccc(O)cc1`, for which the MIC in [1] was 0.06 µM (≈ 0.024 µg/mL); in [2], 0.5 µM (≈ 0.2 µg/mL); in [3], 0.5 µM (≈ 0.2 µg/mL); in assay [4], 0.5 µM (≈ 0.2 µg/mL); in [5], 16 µM (≈ 6.39 µg/mL); in assay [6] it was 32 µM (≈ 12.8 µg/mL). Moreover, the MIC in [7] is 0.5 µM (≈ 0.2 µg/mL); in assay [8], 16 µM (≈ 6.39 µg/mL); in [9], 1 µM (≈ 0.399 µg/mL); in assay [10] it was 32 µM (≈ 12.8 µg/mL); in [11], 0.06 µM (≈ 0.024 µg/mL); in assay [12], 4 µM (≈ 1.6 µg/mL). In addition, the MIC in assay [13] was found to be 1 µM (≈ 0.399 µg/mL); in assay [14], 0.06 µM (≈ 0.024 µg/mL); in [15] it was 64 µM (≈ 25.6 µg/mL); in [16], 1 µM (≈ 0.399 µg/mL); in assay [17] it was 16 µM (≈ 6.39 µg/mL); in [18], 0.5 µM (≈ 0.2 µg/mL). Also, the MIC in assay [19] is 0.25 µM (≈ 0.0998 µg/mL); in [20], 4 µM (≈ 1.6 µg/mL); in assay [21], 1 µM (≈ 0.399 µg/mL); in assay [22] it was 2 µM (≈ 0.799 µg/mL); in [23], 0.25 µM (≈ 0.0998 µg/mL); in [24] it was 0.25 µM (≈ 0.0998 µg/mL).

Consider `N[C@@H](C(=O)N[C@@H]1C(=O)N2C(C(=O)O)=C(C(F)(F)F)CC[C@H]12)c1ccc(F)cc1`, for which the MIC in [1] was 0.06 µM (≈ 0.0241 µg/mL); in [25] it was 0.5 µM (≈ 0.201 µg/mL); in [2] it was 1 µM (≈ 0.401 µg/mL); in assay [3] it was 1 µM (≈ 0.401 µg/mL); in assay [4], 0.5 µM (≈ 0.201 µg/mL); in assay [5], 32 µM (≈ 12.8 µg/mL). Moreover, the MIC is 32 µM (≈ 12.8 µg/mL) in [6]; 1 µM (≈ 0.401 µg/mL) in [7]; 16 µM (≈ 6.42 µg/mL) in [8]; 8 µM (≈ 3.21 µg/mL) in assay [9]; 0.5 µM (≈ 0.201 µg/mL) in assay [11]; 8 µM (≈ 3.21 µg/mL) in assay [12]. Also, the MIC in assay [13] stood at 8 µM (≈ 3.21 µg/mL); in assay [15] it was 64 µM (≈ 25.7 µg/mL); in assay [16], 8 µM (≈ 3.21 µg/mL); in [17], 64 µM (≈ 25.7 µg/mL); in assay [18], 8 µM (≈ 3.21 µg/mL); in [19], 0.25 µM (≈ 0.1 µg/mL). Moreover, the MIC in assay [20] came out at 8 µM (≈ 3.21 µg/mL); in assay [21], 8 µM (≈ 3.21 µg/mL); in assay [26], 32 µM (≈ 12.8 µg/mL); in assay [22], 16 µM (≈ 6.42 µg/mL); in assay [23] it was 8 µM (≈ 3.21 µg/mL); in [24], 1 µM (≈ 0.401 µg/mL).
